# Columns and labels:
# NCI-H1975 = assay: cells; assay type: functional, cell-based; details: Homo sapiens
# cells = assay type: functional, tissue-based; details: Homo sapiens, U87MG Human EGFR vIII
# Description: Antiproliferative activity against human U87MG Human EGFR vIII cells overexpressing EGFRvIII mutant assessed as inhibition of cell growth by MTT assay
# A-431 = assay: cells; assay type: functional, cell-based; details: Homo sapiens;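 note: antiproliferative test in A-431 cells carrying wild-type EGFR, with cell growth inhibition read by MTT assay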
# Description: Antiproliferative activity against human A-431 cells harboring wild type EGFR assessed as inhibition of cell growth by MTT assay
# U-87 MG = assay: cells; assay type: functional, cell-based, U-87MG ATCC; details: Homo sapiens;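 note: antiproliferative effect on U-87 MG cells carrying wild-type EGFR, growth inhibition read out by MTT assay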
# Description: Antiproliferative activity against human U-87MG cells harboring wild type EGFR assessed as inhibition of cell growth by MTT assay
# [1] = biological target: Epidermal growth factor receptor (Homo sapiens, UniProt P00533); assay: biochemical; assay type: cell-based, Sf21
# Epidermal growth factor receptor (Homo sapiens, UniProt P00533), sequence (P00533 whole entry): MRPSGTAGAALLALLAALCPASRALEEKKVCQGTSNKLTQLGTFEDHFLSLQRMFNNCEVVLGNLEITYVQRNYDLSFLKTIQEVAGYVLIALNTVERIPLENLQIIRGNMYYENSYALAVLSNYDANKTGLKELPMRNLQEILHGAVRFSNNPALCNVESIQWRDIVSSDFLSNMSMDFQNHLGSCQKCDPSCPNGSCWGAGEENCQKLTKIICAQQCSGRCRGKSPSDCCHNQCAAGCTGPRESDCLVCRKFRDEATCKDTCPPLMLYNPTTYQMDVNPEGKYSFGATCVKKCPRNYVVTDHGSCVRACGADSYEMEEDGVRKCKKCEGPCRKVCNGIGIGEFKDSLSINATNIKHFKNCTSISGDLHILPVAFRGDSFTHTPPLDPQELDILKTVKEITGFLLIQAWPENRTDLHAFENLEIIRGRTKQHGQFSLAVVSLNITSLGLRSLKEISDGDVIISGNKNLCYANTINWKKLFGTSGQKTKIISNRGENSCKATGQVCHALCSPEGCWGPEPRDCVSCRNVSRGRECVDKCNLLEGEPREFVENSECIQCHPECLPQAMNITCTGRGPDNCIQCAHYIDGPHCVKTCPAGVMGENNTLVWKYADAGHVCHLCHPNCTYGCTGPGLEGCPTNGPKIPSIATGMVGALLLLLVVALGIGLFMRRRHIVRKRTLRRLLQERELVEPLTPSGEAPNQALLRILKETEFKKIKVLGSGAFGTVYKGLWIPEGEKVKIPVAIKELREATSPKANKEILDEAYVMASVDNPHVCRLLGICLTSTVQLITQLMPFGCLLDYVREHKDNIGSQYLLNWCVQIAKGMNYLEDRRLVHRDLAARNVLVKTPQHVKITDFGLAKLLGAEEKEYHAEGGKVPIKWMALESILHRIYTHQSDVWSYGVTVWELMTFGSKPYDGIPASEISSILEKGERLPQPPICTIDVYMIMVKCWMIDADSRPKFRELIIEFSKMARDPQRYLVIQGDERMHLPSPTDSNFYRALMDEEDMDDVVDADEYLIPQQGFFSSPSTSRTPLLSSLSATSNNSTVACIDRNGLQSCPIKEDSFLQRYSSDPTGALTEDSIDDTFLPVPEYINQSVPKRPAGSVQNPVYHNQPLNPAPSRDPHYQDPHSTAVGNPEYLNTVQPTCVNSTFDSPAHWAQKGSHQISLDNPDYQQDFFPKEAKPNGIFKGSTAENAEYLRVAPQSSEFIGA
# Description: Inhibition of wild type N-terminal GST-tagged human EGFR cytoplasmic domain (669 to 1210 residues) expressed in baculovirus infected Sf21 cells using biotin-labeled TK substrate preincubated for 30 mins followed by substrate and ATP addition at Km concentration and further incubated for 20 mins by HTRF assay
# [2] = biological target: Epidermal growth factor receptor (Homo sapiens, UniProt P00533, L858R/T790M); assay: biochemical; assay type: cell-based, Sf21
# Epidermal growth factor receptor (Homo sapiens, UniProt P00533, L858R/T790M), sequence (P00533 25-1210 T790M/L858R limits assumed): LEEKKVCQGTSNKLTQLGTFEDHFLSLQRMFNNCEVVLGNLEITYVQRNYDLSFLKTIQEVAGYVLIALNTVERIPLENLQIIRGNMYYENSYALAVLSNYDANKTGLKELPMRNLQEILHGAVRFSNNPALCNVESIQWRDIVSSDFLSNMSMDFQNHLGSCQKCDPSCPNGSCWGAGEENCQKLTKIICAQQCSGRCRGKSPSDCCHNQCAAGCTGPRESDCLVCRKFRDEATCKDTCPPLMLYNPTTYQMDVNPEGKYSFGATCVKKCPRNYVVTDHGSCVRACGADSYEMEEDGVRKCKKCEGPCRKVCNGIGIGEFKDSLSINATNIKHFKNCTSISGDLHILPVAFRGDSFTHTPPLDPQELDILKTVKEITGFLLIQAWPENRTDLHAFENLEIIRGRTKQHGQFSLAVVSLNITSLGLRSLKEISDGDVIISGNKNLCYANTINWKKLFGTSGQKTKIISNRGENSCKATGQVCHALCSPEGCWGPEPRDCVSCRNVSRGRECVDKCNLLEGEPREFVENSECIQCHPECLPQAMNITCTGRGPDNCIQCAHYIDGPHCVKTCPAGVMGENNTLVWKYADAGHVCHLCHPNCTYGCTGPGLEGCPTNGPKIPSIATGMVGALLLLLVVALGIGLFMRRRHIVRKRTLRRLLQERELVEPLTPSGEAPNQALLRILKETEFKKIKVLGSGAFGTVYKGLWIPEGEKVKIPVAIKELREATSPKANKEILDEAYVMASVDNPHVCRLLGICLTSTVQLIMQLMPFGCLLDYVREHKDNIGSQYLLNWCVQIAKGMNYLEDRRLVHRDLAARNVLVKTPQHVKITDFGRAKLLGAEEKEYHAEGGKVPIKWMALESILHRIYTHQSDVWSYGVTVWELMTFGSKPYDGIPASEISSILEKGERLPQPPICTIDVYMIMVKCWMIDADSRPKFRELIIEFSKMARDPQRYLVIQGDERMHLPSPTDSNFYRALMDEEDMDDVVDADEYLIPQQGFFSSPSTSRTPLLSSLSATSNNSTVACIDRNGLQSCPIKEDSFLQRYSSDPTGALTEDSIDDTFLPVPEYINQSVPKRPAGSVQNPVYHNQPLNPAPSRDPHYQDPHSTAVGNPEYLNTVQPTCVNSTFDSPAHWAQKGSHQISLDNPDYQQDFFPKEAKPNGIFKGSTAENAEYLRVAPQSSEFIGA
Compound,IC50 (NCI-H1975),IC50 (cells),IC50 (A-431),IC50 (U-87 MG),IC50 [1],IC50 [2]
C=CC(=O)Nc1cccc(Nc2cc(-n3c(CCCO)nnc3-c3ccc(F)cc3)ccn2)c1,> 100 µM,> 100 µM,65.9 µM,21.7 µM,0.196 µM,0.143 µM
C=CC(=O)Nc1ccc(OC)c(Nc2cc(-n3c(CCCO)nnc3-c3ccc(F)cc3)ccn2)c1,> 100 µM,> 100 µM,88.6 µM,> 100 µM,,
C=CC(=O)Nc1cc(Nc2cc(-n3c(SC)nnc3-c3ccc(F)cc3)ccn2)c(OC)cc1N1CCCN(C)CC1,8.1 µM,43.6 µM,10.3 µM,6.97 µM,0.333 µM,0.156 µM
C=CC(=O)Nc1cc(Nc2nccc(-c3cn(C)c4ccccc34)n2)c(OC)cc1N(C)CCN(C)C [OSIMERTINIB],[…],13.1 µM,[…],4.5 µM,,
C=CC(=O)Nc1cccc(Nc2cc(-n3c(SC)nnc3-c3ccc(F)cc3)ccn2)c1,10.7 µM,13 µM,6.9 µM,3.5 µM,,0.234 µM

# Second part, led by results:
IC50 (NCI-H1975),IC50 (cells),IC50 (A-431),IC50 (U-87 MG),Compound,IC50 [1],IC50 [2]
> 100 µM,> 100 µM,14.3 µM,8.66 µM,C=CC(=O)Nc1cc(Nc2cc(-n3c(SC)nnc3-c3ccc(F)cc3)ccn2)c(OC)cc1N1CCN(C)CC1,,
21.4 µM,37.8 µM,12.2 µM,51.6 µM,C=CC(=O)Nc1cccc(Nc2cc(-n3c(C)nnc3-c3ccc(F)cc3)ccn2)c1,,
41.9 µM,> 100 µM,> 100 µM,19.2 µM,COc1cc(N(C)CCN(C)C)ccc1Nc1cc(-n2c(SC)nnc2-c2ccc(F)cc2)ccn1,,
14.9 µM,25.5 µM,9.9 µM,6.49 µM,C=CC(=O)Nc1cc(Nc2cc(-n3c(SC)nnc3-c3ccc(F)cc3)ccn2)c(OC)cc1N1CCN(C2CCN(C)CC2)CC1,,

# From ChEMBL document CHEMBL4706488, “Design, synthesis and biological evaluation of 2-amino-4-(1,2,4-triazol)pyridine derivatives as potent EGFR inhibitors to overcome TKI-resistance” (Eur J Med Chem, 2020)
